Legend:
[1] = biological target: T1, human TRPV1 receptor (hTRPV1) (Homo sapiens (Human), UniProt Q8NER1); test: Capsaicin activation assay (FLIPR intracellular Ca2+); type: cell-based; settings: Table 1; inhibition of capsaicin-induced intracellular Ca2+ increase, HEK293 cells expressing human TRPV1; read-out: hTRPV1 cap IC50
Description: Dulbecco's modified Eagle medium (D-MEM) (with 4.5 mg/mL glucose) and fetal bovine serum were obtained from Hyclone Laboratories, Inc. (Logan, Utah). Dulbecco's phosphate-buffered saline (D-PBS) (with 1 mg/mL glucose and 3.6 mg/l Na pyruvate, without phenol red), L-glutamine, hygromycin B, and Lipofectamine® were obtained from Life Technologies (Grand Island, N.Y.). G418 sulfate was obtained from Calbiochem-Novabiochem Corp. (San Diego, Calif.). Capsaicin (8-methyl-N-vanillyl-6-nonenamide) was obtained from Sigma-Aldrich, Co. (St. Louis, Mo.). Fluo-4 AM (N-[4-[6-[(acetyloxy)methoxy]-2,7-difluoro-3-oxo-3H-xanthen-9-yl]-2-[2-[2-[bis[2-[(acetyloxy)methoxy]-2-oxyethyl]amino]-5-methyl phenoxy]ethoxy]phenyl]-N-[2-[(acetyloxy)methoxy]-2-oxyethyl]-glycine, (acetyloxy)methyl ester) was purchased from Molecular Probes (Eugene, Oreg.). […]
The functional activity of compounds at the TRPV1 receptor was determined by measurement of intracellular Ca^2+ levels ([Ca^2+]i) using the Fluorescence Imaging Plate Reader (FLIPR)^TETRA®. All compounds were tested over a 12-point one-third-log concentration range. Compound stocks, 10 mM, were prepared in DMSO, and diluted serially across a 384-well plate using a Bravo BenchCel workstation (Agilent Technologies, Santa Clara, Calif.). A stock concentration of capsaicin (10 mM) was made in DMSO, and diluted in D-PBS to a final concentration of 200 nM (4×). On the day prior to the experiment, recombinant HEK293 cells that stably express human TRPV1 were removed from tissue culture flasks and plated in growth medium into black-walled clear-bottom 384-well Biocoat™ poly-D-lysine assay plates (BD Biosciences, Bedford, Mass.) using a Multidrop® dispenser (ThermoScientific, Waltham, Mass.). On the day of the experiment, growth medium was removed, and the no-wash FLIPR® Calcium-4 dye (λEX=470-495 nm, λEM=515-575 nm; Molecular Devices, Sunnyvale, Calif.) was added to each well using the Multidrop® dispenser. Cells were incubated for 90-120 minutes in the dark at room temperature. Test compounds were added to the cells 3 minutes prior to the addition of 200 nM capsaicin (4×), and the final assay volume was 80 μL. Fluorescence readings were made at 1 to 5 second intervals over the course of the experimental run. The peak increase in relative fluorescence units (minus baseline) was calculated, and expressed as a percentage of the 50 nM capsaicin (control) response.

[2] = biological target: T1, human TRPV1 receptor (hTRPV1); test: Acid activation assay (pH 5.0, FLIPR intracellular Ca2+); type: cell-based; settings: Table 1; 37.5 μM antagonist, percentage of the maximal pH 5.0-induced response remaining; read-out: hTRPV1 H+ (max % remain)
Description: Dulbecco's modified Eagle's medium (DMEM) with 4.5 mg/mL D-glucose, fetal bovine serum, L-glutamine, and 2-morpholinoethanesulfonic acid (MES) were purchased from Sigma-Aldrich Co. (St. Louis, Mo.). Dulbecco's phosphate-buffered saline (DPBS) with Ca^2+, Mg^2+, and 1 mg/mL D-glucose (pH 7.4), Geneticin®, 0.25% trypsin-1 mM EDTA, and penicillin-streptomycin were purchased from Invitrogen Corp. (Carlsbad, Calif.). The FLIPR® Calcium 4 assay kit was purchased from Molecular Devices (Sunnyvale, Calif.).
The cDNAs for the human TRPV1 receptor (hTRPV1) were isolated by reverse transcriptase-polymerase chain reaction (RT-PCR) from human small intestine poly A+RNA supplied by Clontech (Palo Alto, Calif.) using primers designed surrounding the initiation and termination codons identical to the published sequences (Hayes et al. Pain 2000, 88, 205-215). The resulting cDNA PCR products were subcloned into pCIneo mammalian expression vector (Promega) and fully sequenced using fluorescent dye-terminator reagents (Prism, Perkin-Elmer Applied Biosystems Division) and a Perkin-Elmer Applied Biosystems Model 373 DNA sequencer or Model 310 genetic analyzer. Expression plasmids encoding the hTRPV1 cDNA were transfected individually into 1321N1 human astrocytoma cells using Lipofectamine. Forty-eight hours after transfection, the neomycin-resistant cells were selected with growth medium containing 800 μg/mL Geneticin (Gibco BRL). Surviving individual colonies were isolated and screened for TRPV1 receptor activity. Cells expressing recombinant homomeric TRPV1 receptors were maintained at 37° C. in DMEM containing 4 mM L-glutamine, 300 μg/mL G418 (Cal-biochem) and 10% fetal bovine serum under a humidified 5% CO2 atmosphere.
The functional activity of compounds at the TRPV1 receptor was determined by measurement of intracellular Ca^2+ levels ([Ca^2+]i) using the Fluorescence Imaging Plate Reader (FLIPR)^TETRA®. All compounds were tested over a 12-point one-half-log concentration range. Compound stocks, 10 mM, were prepared in DMSO, and diluted serially across a 384-well plate using a Bravo BenchCel workstation (Agilent Technologies, Santa Clara, Calif.).
On the day of the experiment growth medium was removed, and the no-wash FLIPR® Calcium-4 dye (λEX=470-495 nm, λEM=515-575 nm) was added to each well using the Multidrop® dispenser. Cells were incubated for 90-120 minutes in the dark at 25° C. Test compounds were dissolved in DMSO, and plates were prepared using an Agilent Bravo workstation (Agilent Technologies Inc., Santa Clara, Calif.). Compounds were added to the cells 3 minutes prior to the addition of a pH 5.0 solution. Reagents were delivered at a rate of 40 μL/sec, and the final assay volume was 80 μL. Acidic pH solutions were prepared by titration of DPBS/MES with 1 N HCl. The intensity of the fluorescence was captured and digitally transferred to an interfaced PC.

T1 sequence (Q8NER1 whole entry): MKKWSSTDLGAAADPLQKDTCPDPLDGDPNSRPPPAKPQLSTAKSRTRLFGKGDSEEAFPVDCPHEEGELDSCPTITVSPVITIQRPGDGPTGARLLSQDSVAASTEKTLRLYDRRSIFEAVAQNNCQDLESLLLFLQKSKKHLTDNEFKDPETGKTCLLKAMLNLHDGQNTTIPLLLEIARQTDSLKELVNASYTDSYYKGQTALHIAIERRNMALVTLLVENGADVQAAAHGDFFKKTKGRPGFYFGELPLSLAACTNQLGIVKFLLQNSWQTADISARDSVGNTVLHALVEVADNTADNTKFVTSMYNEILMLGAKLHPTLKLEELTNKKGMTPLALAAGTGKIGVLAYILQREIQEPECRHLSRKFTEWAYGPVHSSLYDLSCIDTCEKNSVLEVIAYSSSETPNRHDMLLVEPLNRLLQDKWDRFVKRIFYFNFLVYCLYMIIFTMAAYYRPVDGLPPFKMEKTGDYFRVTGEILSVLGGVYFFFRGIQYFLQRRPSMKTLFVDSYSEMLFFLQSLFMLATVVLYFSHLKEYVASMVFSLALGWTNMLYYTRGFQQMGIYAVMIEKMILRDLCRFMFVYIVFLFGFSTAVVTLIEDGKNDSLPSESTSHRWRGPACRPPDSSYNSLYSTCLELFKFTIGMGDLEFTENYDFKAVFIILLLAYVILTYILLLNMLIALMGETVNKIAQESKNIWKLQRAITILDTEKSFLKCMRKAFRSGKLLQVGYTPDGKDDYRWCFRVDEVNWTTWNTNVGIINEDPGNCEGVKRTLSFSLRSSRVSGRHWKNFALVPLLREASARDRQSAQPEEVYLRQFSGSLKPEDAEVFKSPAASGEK

Row | IC50 [1] [nM] | remaining activity at 37.5 µM [2] [%] | Structure (SMILES)
1 | 4 | 2 | O=C(Nc1cccc2c1C[C@H](O)CC2)N[C@@H]1CC[C@H](c2ccccc2)C1 [Compound G, 1-[(7R)-7-hydroxy-5,6,7,8-tetrahydronaphthalen-1-yl]-3-[(1R,3S)-3-phenylcyclopentyl]urea, reference compound]
2 | 106 | 93 | O=C(Nc1cccc2c1C[C@H](O)C2)N[C@@H]1CC[C@H](c2ccccc2)C1 [Example 1, 1-[(2R)-2-hydroxy-2,3-dihydro-1H-inden-4-yl]-3-[(1R,3S)-3-phenylcyclopentyl]urea]
3 | 55 | 2 | C[C@H]1Oc2c(NC(=O)N[C@@H]3CC[C@H](c4ccccc4)C3)cccc2NC1=O [Example 3, 1-[(2R)-2-methyl-3-oxo-3,4-dihydro-2H-1,4-benzoxazin-8-yl]-3-[(1R,3S)-3-phenylcyclopentyl]urea]
4 | 70 | 81 | O=C1CCc2ccc(NC(=O)N[C@@H]3CC[C@H](c4ccccc4)C3)cc2N1 [Example 5, 1-(2-oxo-1,2,3,4-tetrahydroquinolin-7-yl)-3-[(1R,3S)-3-phenylcyclopentyl]urea]
5 | 123 | 78 | O=C(Nc1cccc2c1C[C@H](O)C2)N[C@H]1CC[C@H](c2ccccc2)C1 [Example 8, 1-[(2R)-2-hydroxy-2,3-dihydro-1H-inden-4-yl]-3-[(1S,3S)-3-phenylcyclopentyl]urea]
6 | 205 | 14 | O=C(Nc1cccc2c1C[C@@H](O)C2)N[C@H]1CC[C@H](c2ccccc2)C1 [Example 9, 1-[(2S)-2-hydroxy-2,3-dihydro-1H-inden-4-yl]-3-[(1S,3S)-3-phenylcyclopentyl]urea]
7 | 84 | 3 | C[C@H]1Oc2c(NC(=O)N[C@H]3CC[C@H](c4ccccc4)C3)cccc2NC1=O [Example 10, 1-[(2R)-2-methyl-3-oxo-3,4-dihydro-2H-1,4-benzoxazin-8-yl]-3-[(1S,3S)-3-phenylcyclopentyl]urea]
8 | 84 | 49 | Cn1ncc2c(NC(=O)N[C@H]3CC[C@H](c4ccccc4)C3)cccc21 [Example 11, 1-(1-methyl-1H-indazol-4-yl)-3-[(1S,3S)-3-phenylcyclopentyl]urea]
9 | 207 | 65 | O=C1CCc2ccc(NC(=O)N[C@H]3CC[C@H](c4ccccc4)C3)cc2N1 [Example 12, 1-(2-oxo-1,2,3,4-tetrahydroquinolin-7-yl)-3-[(1S,3S)-3-phenylcyclopentyl]urea]
10 | 13 | 60 | Cc1cc2c(NC(=O)N[C@H]3CC[C@H](c4ccccc4)C3)c(F)ccc2cn1 [Example 13, 1-(6-fluoro-3-methylisoquinolin-5-yl)-3-[(1S,3S)-3-phenylcyclopentyl]urea]
11 | 179 | 20 | O=C(Nc1cccc2c1C[C@H](O)C2)N[C@@H]1CC[C@@H](c2ccccc2)C1 [Example 15, 1-[(2R)-2-hydroxy-2,3-dihydro-1H-inden-4-yl]-3-[(1R,3R)-3-phenylcyclopentyl]urea]
12 | 80 | 87 | O=C(Nc1cccc2c1C[C@@H](O)C2)N[C@@H]1CC[C@@H](c2ccccc2)C1 [Example 16, 1-[(2S)-2-hydroxy-2,3-dihydro-1H-inden-4-yl]-3-[(1R,3R)-3-phenylcyclopentyl]urea]
13 | 373 | 25 | C[C@H]1Oc2c(NC(=O)N[C@@H]3CC[C@@H](c4ccccc4)C3)cccc2NC1=O [Example 17, 1-[(2R)-2-methyl-3-oxo-3,4-dihydro-2H-1,4-benzoxazin-8-yl]-3-[(1R,3R)-3-phenylcyclopentyl]urea]
14 | 70 | 18 | Cn1ncc2c(NC(=O)N[C@@H]3CC[C@@H](c4ccccc4)C3)cccc21 [Example 18, 1-(1-methyl-1H-indazol-4-yl)-3-[(1R,3R)-3-phenylcyclopentyl]urea]
15 | > 37500 | 81 | O=C1CCc2ccc(NC(=O)N[C@@H]3CC[C@@H](c4ccccc4)C3)cc2N1 [Example 19, 1-(2-oxo-1,2,3,4-tetrahydroquinolin-7-yl)-3-[(1R,3R)-3-phenylcyclopentyl]urea]
16 | 286 | 41 | O=C(Nc1cccc2c1C[C@H](O)C2)N[C@H]1CC[C@@H](c2ccccc2)C1 [Example 22, 1-[(2R)-2-hydroxy-2,3-dihydro-1H-inden-4-yl]-3-[(1S,3R)-3-phenylcyclopentyl]urea]
17 | 138 | 88 | O=C(Nc1cccc2c1C[C@@H](O)C2)N[C@H]1CC[C@@H](c2ccccc2)C1 [Example 23, 1-[(2S)-2-hydroxy-2,3-dihydro-1H-inden-4-yl]-3-[(1S,3R)-3-phenylcyclopentyl]urea]
18 | 85 | 1 | C[C@H]1Oc2c(NC(=O)N[C@H]3CC[C@@H](c4ccccc4)C3)cccc2NC1=O [Example 24, 1-[(2R)-2-methyl-3-oxo-3,4-dihydro-2H-1,4-benzoxazin-8-yl]-3-[(1S,3R)-3-phenylcyclopentyl]urea]
19 | 628 | 46 | Cn1ncc2c(NC(=O)N[C@H]3CC[C@@H](c4ccccc4)C3)cccc21 [Example 25, 1-(1-methyl-1H-indazol-4-yl)-3-[(1S,3R)-3-phenylcyclopentyl]urea]
20 | 544 | 65 | O=C1CCc2ccc(NC(=O)N[C@H]3CC[C@@H](c4ccccc4)C3)cc2N1 [Example 26, 1-(2-oxo-1,2,3,4-tetrahydroquinolin-7-yl)-3-[(1S,3R)-3-phenylcyclopentyl]urea]
21 | 1730 | 68 | CC(C)(C)c1ccc(C2CCCC(NC(=O)Nc3cccc4[nH]ncc34)C2)cc1 (centres unmarked) [Example 29, 1-[3-(4-tert-butylphenyl)cyclohexyl]-3-(1H-indazol-4-yl)urea]
22 | 1050 | 26 | O=C(Nc1cccc2[nH]ncc12)NC1CCCC(c2ccc(C(F)(F)F)cc2)C1 (centres unmarked) [Example 30, 1-(1H-indazol-4-yl)-3-{3-[4-(trifluoromethyl)phenyl]cyclohexyl}urea]
